From patent US20100286181A1, “PYRROLE DERIVATIVES WITH ANTIBACTERIAL ACTIVITY” (ASTRAZENECA AB, priority 2006, published 2010)

What follows are compounds tested against GyrB ATPase activity (E. coli GyrA, E. coli GyrB) (Escherichia coli, UniProt P0AES6) (assay: GyrB ATPase inhibition activity assay (ammonium molybdate/malachite green phosphate detection)). Conditions: figure quoted may be an average of two or more results.
Type: biochemical
How it was run: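 E. coli GyrA/GyrB (2.5 nM each) with 5 μg/ml sheared DNA and 250 μM ATP in 50 mM HEPES pH 7.5, 5.5 mM MgCl2, 75 mM ammonium acetate. Released phosphate detected with ammonium molybdate/malachite green reagent. IC50 may be an average of two or more results.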

Compound	IC50 [nM]
COCCn1ccnc1-c1nc(N2CCC(NC(=O)c3[nH]c(C)c(Cl)c3Cl)/C(=N/OC)C2)sc1C(=O)OC (stereo not shown) [Example 36, Methyl 2-[(3E)-4-{[(3,4-dichloro-5-methyl-1H-pyrrol-2-yl)carbonyl]amino}-3-(methoxyimino)piperidin-1-yl]-4-[1-(2-methoxyethyl)-1H-imidazol-2-yl]-1,3-thiazole-5-carboxylate]	75.5
COC1COC2(CN(c3ncc(C(=O)O)s3)CCC2NC(=O)c2[nH]c(C)c(Cl)c2Cl)OC1 [Example 52, 2-((rel-3R,6r,11R)-11-{[(3,4-Dichloro-5-methyl-1H-pyrrol-2-yl)carbonyl]amino}-3-methoxy-1,5-dioxa-8-azaspiro[5.5]undec-8-yl)-1,3-thiazole-5-carboxylic acid]	< 9.77
COC1COC2(CN(c3ncc(C(=O)O)s3)CCC2NC(=O)c2[nH]c(C)c(Cl)c2Cl)OC1 [Example 53, 2-((rel-3S,6s,11R)-11-{[(3,4-Dichloro-5-methyl-1H-pyrrol-2-yl)carbonyl]amino}-3-methoxy-1,5-dioxa-8-azaspiro[5.5]undec-8-yl)-1,3-thiazole-5-carboxylic acid]	< 9.77
Cc1[nH]c(C(=O)NC2CCN(c3ncc(C(=O)O)s3)CC23OCC2(CC2)CO3)c(Cl)c1Cl (stereo not shown) [Example 55, 2-(11-{[(3,4-Dichloro-5-methyl-1H-pyrrol-2-yl)carbonyl]amino}-5,12-dioxa-8-azadispiro[2.2.5.2]tridec-8-yl)-1,3-thiazole-5-carboxylic acid]	< 9.77
C=C1COC2(CN(c3ncc(C(=O)O)s3)CCC2NC(=O)c2[nH]c(C)c(Cl)c2Cl)OC1 (stereo not shown) [Example 56, 2-(11-{[(3,4-Dichloro-5-methyl-1H-pyrrol-2-yl)carbonyl]amino}-3-methylene-1,5-dioxa-8-azaspiro[5.5]undec-8-yl)-1,3-thiazole-5-carboxylic acid]	< 9.77
Cc1[nH]c(C(=O)NC2CCN(c3ncc(C(=O)O)s3)CC23OCC(C)(C)CO3)c(Cl)c1Cl (stereo not shown) [Example 57, 2-(11-{[(3,4-Dichloro-5-methyl-1H-pyrrol-2-yl)carbonyl]amino}-3,3-dimethyl-1,5-dioxa-8-azaspiro[5.5]undec-8-yl)-1,3-thiazole-5-carboxylic acid]	< 9.77
COC(=O)c1cnc(N2CCC(NC(=O)c3[nH]c(C)c(Cl)c3Cl)C3(C2)OCC(C)(C)CO3)s1 (stereo not shown) [Example 64, Methyl 2-(11-{[(3,4-dichloro-5-methyl-1H-pyrrol-2-yl)carbonyl]amino}-3,3-dimethyl-1,5-dioxa-8-azaspiro[5.5]undec-8-yl)-1,3-thiazole-5-carboxylate]	155
COC(=O)c1cnc(N2CC[C@@H](NC(=O)c3[nH]c(C)c(Cl)c3Cl)[C@@H](n3ccnn3)C2)s1 [Example 70, Methyl 2-[(3S,4R)-4-{[(3,4-dichloro-5-methyl-1H-pyrrol-2-yl)carbonyl]amino}-3-(1H-1,2,3-triazol-1-yl)-1-piperidinyl]-1,3-thiazole-5-carboxylate]	12.4
COC(=O)c1cnc(N2CC[C@@H](NC(=O)c3[nH]c(C)c(Cl)c3Cl)[C@@H](n3cc(Cl)nn3)C2)s1 [Example 71, Methyl 2-[(3S,4R)-3-(4-chloro-1H-1,2,3-triazol-1-yl)-4-[(3,4-dichloro-5-methyl-1H-pyrrole-2-carbonyl)amino]-1-piperidinyl]-1,3-thiazole-5-carboxylate]	40
Cc1[nH]c(C(=O)N[C@@H]2CCN(c3nc4cccc(C(N)=O)c4s3)C[C@@H]2n2ccnn2)c(Cl)c1Cl [Example 82, 2-[(3S,4R)-4-{[(3,4-Dichloro-5-methyl-1H-pyrrol-2-yl)carbonyl]amino}-3-(1H-1,2,3-triazol-1-yl)piperidin-1-yl]-1,3-benzothiazole-7-carboxamide]	< 9.77
CCOC(=O)c1sc(N2CC[C@@H](NC(=O)c3[nH]c(C)c(Cl)c3Cl)[C@@H](n3cc(C#N)nn3)C2)nc1C(=O)NCCOC [Example 92, Ethyl 2-[(3S,4R)-3-(4-cyano-1H-1,2,3-triazol-1-yl)-4-[(3,4-dichloro-5-methyl-1H-pyrrole-2-carbonyl)amino]-1-piperidinyl]-4-(2-methoxyethylcarbamoyl)-1,3-thiazole-5-carboxylate]	< 9.77
COCCNC(=O)c1nc(N2CC[C@@H](NC(=O)c3[nH]c(C)c(Cl)c3Cl)[C@@H](n3ccnn3)C2)sc1C(=O)O [Example 100]	< 9.77
Cc1[nH]c(C(=O)N[C@@H]2CCN(c3ncc(C(=O)O)s3)C[C@@H]2n2ccnn2)c(Cl)c1Cl [Example 101, 2-[(3S,4R)-4-{[(3,4-Dichloro-5-methyl-1H-pyrrol-2-yl)carbonyl]amino}-3-(1H-1,2,3-triazol-1-yl)piperidin-1-yl]-1,3-thiazole-5-carboxylic acid]	< 9.77
Cc1[nH]c(C(=O)N[C@@H]2CCN(c3ncc(C(=O)O)s3)C[C@@H]2N=[N+]=[N-])c(Cl)c1Cl [Example 102]	< 9.77
COCCNC(=O)c1nc(N2CC[C@@H](NC(=O)c3[nH]c(C)c(Cl)c3Cl)[C@@H](N=[N+]=[N-])C2)sc1C(=O)O [Example 103]	< 9.77
COCCNC(=O)c1nc(N2CC[C@@H](NC(=O)c3[nH]c(C)c(Cl)c3Cl)[C@@H](n3cc(C)nn3)C2)sc1C(=O)O [Example 104]	< 9.77
COCC(COC)NC(=O)c1nc(N2CC[C@@H](NC(=O)c3[nH]c(C)c(Cl)c3Cl)[C@@H](n3cc(C)nn3)C2)sc1C(=O)O [Example 105]	< 9.77

Compound	IC50 [nM]
COCC(COC)(COC)NC(=O)c1nc(N2CC[C@@H](NC(=O)c3[nH]c(C)c(Cl)c3Cl)[C@@H](n3cc(C)nn3)C2)sc1C(=O)O [Example 106]	< 432
Cc1[nH]c(C(=O)N[C@@H]2CCN(c3ncc(C(=O)O)s3)C[C@@H]2n2cc(Cl)nn2)c(Cl)c1Cl [Example 107]	< 9.77
COCCNC(=O)c1nc(N2CC[C@@H](NC(=O)c3[nH]c(C)c(Cl)c3Cl)[C@@H](n3cc(Cl)nn3)C2)sc1C(=O)O [Example 108, 2-((3S,4R)-3-(4-Chloro-1H-1,2,3-triazol-1-yl)-4-{[(3,4-dichloro-5-methyl-1H-pyrrol-2-yl)carbonyl]amino}piperidin-1-yl)-4-{[(2-methoxyethyl)amino]carbonyl}-1,3-thiazole-5-carboxylic acid]	< 9.77
COCC(COC)NC(=O)c1nc(N2CC[C@@H](NC(=O)c3[nH]c(C)c(Cl)c3Cl)[C@@H](n3cc(Cl)nn3)C2)sc1C(=O)O [Example 109]	< 9.77
Cc1[nH]c(C(=O)N[C@@H]2CCN(c3nc(C(=O)NC4CC4)c(C(=O)O)s3)C[C@@H]2n2cc(Cl)nn2)c(Cl)c1Cl [Example 110]	< 9.77
COCC(COC)NC(=O)c1nc(N2CC[C@@H](NC(=O)c3[nH]c(C)c(Cl)c3Cl)[C@@H](n3cc(CC#N)nn3)C2)sc1C(=O)O [Example 111]	< 9.77
COCC(COC)NC(=O)c1nc(N2CC[C@@H](NC(=O)c3[nH]c(C)c(Cl)c3Cl)[C@@H](n3cc(CF)nn3)C2)sc1C(=O)O [Example 112]	< 9.77
COCC(COC)NC(=O)c1nc(N2CC[C@@H](NC(=O)c3[nH]c(C)c(Cl)c3Cl)[C@@H](n3cc(Br)nn3)C2)sc1C(=O)O [Example 113]	< 9.77
COCC(COC)NC(=O)c1nc(N2CC[C@@H](NC(=O)c3[nH]c(C)c(Cl)c3Cl)[C@@H](n3cc(CO)nn3)C2)sc1C(=O)O [Example 114]	< 9.77
COCCNC(=O)c1nc(N2CC[C@@H](NC(=O)c3[nH]c(C)c(Cl)c3Cl)[C@@H](n3cc(CO)nn3)C2)sc1C(=O)O [Example 115]	< 9.77
COCc1cn([C@H]2CN(c3nc(C(=O)NC(COC)COC)c(C(=O)O)s3)CC[C@H]2NC(=O)c2[nH]c(C)c(Cl)c2Cl)nn1 [Example 116]	< 9.77
COCCNC(=O)c1nc(N2CC[C@@H](NC(=O)c3[nH]c(C)c(Cl)c3Cl)[C@@H](n3cc(COC)nn3)C2)sc1C(=O)O [Example 117]	< 9.77
COCC(COC)NC(=O)c1nc(N2CC[C@@H](NC(=O)c3[nH]c(C)c(Cl)c3Cl)[C@@H](n3ccnn3)C2)sc1C(=O)O [Example 118]	< 9.77
CONC(=O)c1cnc(N2CC[C@@H](NC(=O)c3[nH]c(C)c(Cl)c3Cl)[C@@H](n3ccnn3)C2)s1 [Example 120, 2-[(3S,4R)-4-{[(3,4-Dichloro-5-methyl-1H-pyrrol-2-yl)carbonyl]amino}-3-(1H-1,2,3-triazol-1-yl)piperidin-1-yl]-N-methoxy-1,3-thiazole-5-carboxamide]	19.6
CCOC(=O)c1cccc2nc(N3CC[C@@H](NC(=O)c4[nH]c(C)c(Cl)c4Cl)[C@@H](n4ccnn4)C3)sc12 [Example 123, Ethyl 2-[(3S,4R)-4-{[(3,4-dichloro-5-methyl-1H-pyrrol-2-yl)carbonyl]amino}-3-(1H-1,2,3-triazol-1-yl)piperidin-1-yl]-1,3-benzothiazole-7-carboxy late]	218
Cc1[nH]c(C(=O)N[C@@H]2CCN(c3nc4cccc(C(=O)O)c4s3)C[C@@H]2n2ccnn2)c(Cl)c1Cl [Example 124, 2-[(3S,4R)-4-{[(3,4-Dichloro-5-methyl-1H-pyrrol-2-yl)carbonyl]amino}-3-(1H-1,2,3-triazol-1-yl)piperidin-1-yl]-1,3-benzothiazole-7-carboxylic acid]	< 9.77
CONC(=O)c1cccc2nc(N3CC[C@@H](NC(=O)c4[nH]c(C)c(Cl)c4Cl)[C@@H](n4ccnn4)C3)sc12 [Example 125, 2-[(3S,4R)-4-{[(3,4-Dichloro-5-methyl-1H-pyrrol-2-yl)carbonyl]amino}-3-(1H-1,2,3-triazol-1-yl)piperidin-1-yl]-N-methoxy-1,3-benzothiazole-7-carboxamide]	< 9.77
